Assay results published in the CheMixHub ionic liquid set.

Assay: xn = mol fraction of the nth substance listed
Settings: for viscosity: 100 kPa; for electrical conductivity: 101 kPa

COCCOCCO + CCCC[n+]1ccn(C)c1.F[P-](F)(F)(F)(F)F
Settings | viscosity [mPa·s]
283.15 K, x2 = 0.05331 | 7.5
283.15 K, x2 = 0.09804 | 9.72
283.15 K, x2 = 0.19 | 15.75
283.15 K, x2 = 0.2921 | 25.91
283.15 K, x2 = 0.384 | 39.17
283.15 K, x2 = 0.4556 | 57.5
283.15 K, x2 = 0.5782 | 97.4
283.15 K, x2 = 0.6754 | 141.2
283.15 K, x2 = 0.7826 | 218.3
283.15 K, x2 = 0.8947 | 394
283.15 K, x2 = 0.9428 | 522
293.15 K, x2 = 0.04991 | 5.319
293.15 K, x2 = 0.09685 | 6.745
293.15 K, x2 = 0.1962 | 10.81
293.15 K, x2 = 0.291 | 16.42
293.15 K, x2 = 0.4 | 25.65
293.15 K, x2 = 0.5144 | 42.34
293.15 K, x2 = 0.5864 | 52.18
293.15 K, x2 = 0.673 | 67.5
293.15 K, x2 = 0.7866 | 103.1
293.15 K, x2 = 0.8943 | 187.6
293.15 K, x2 = 0.945 | 239.3
303.15 K, x2 = 0.05183 | 4.124
303.15 K, x2 = 0.09655 | 5.063
303.15 K, x2 = 0.1884 | 7.095
303.15 K, x2 = 0.2922 | 11.15
303.15 K, x2 = 0.3935 | 16.31
303.15 K, x2 = 0.5055 | 26.04
303.15 K, x2 = 0.5816 | 33.29
303.15 K, x2 = 0.6785 | 45.05
303.15 K, x2 = 0.7725 | 63.3
303.15 K, x2 = 0.9022 | 113.3
303.15 K, x2 = 0.9392 | 142.8
313.15 K, x2 = 0.04989 | 3.16
313.15 K, x2 = 0.09747 | 3.842
313.15 K, x2 = 0.1914 | 5.61
313.15 K, x2 = 0.2888 | 8.03
313.15 K, x2 = 0.3854 | 11.32
313.15 K, x2 = 0.4724 | 15.18
313.15 K, x2 = 0.5945 | 23.13
313.15 K, x2 = 0.6785 | 31.11
313.15 K, x2 = 0.7835 | 46.19
313.15 K, x2 = 0.8966 | 73.1
313.15 K, x2 = 0.9583 | 96.7

C[n+]1ccn(CCC(F)(F)C(F)(F)F)c1.F[P-](F)(F)(F)(F)F + CCCC[n+]1ccn(C)c1.F[P-](F)(F)(F)(F)F
Settings | viscosity [mPa·s]
338.16 K, x2 = 0.972 | 40.9

F[B-](F)(F)F.[Li+] + CCCC[n+]1ccn(C)c1.N#C[N-]C#N
electrical conductivity [S/m]
Settings | x2 = 0.8903 | x2 = 0.9069 | x2 = 0.933 | x2 = 0.9549 | x2 = 0.9799
288.15 K | – | 0.426 | 0.514 | 0.543 | 0.622
298.15 K | 0.595 | 0.679 | 0.8 | 0.842 | 0.972
333.15 K | 1.89 | 2.07 | 2.31 | 2.41 | 2.7
